Measurements: ChEMBL document CHEMBL1154169, “Activity and molecular modeling of a new small molecule active against NNRTI-resistant HIV-1 mutants” (Eur J Med Chem, 2009)

Legend:
[1] = test system: Human immunodeficiency virus 1; assay: Antiviral activity against NNRTI-resistant HIV1 A17 with reverse transcriptase K103N, Y181C mutant infected in human MT4 cells assessed as protection against virus-induced cytopathogenicity after 4 days by MTT assay; type: functional, organism-based; conditions: Human immunodeficiency virus 1, A17, MT4, 96 h
[2] = test system: Human immunodeficiency virus 1; assay: Antiviral activity against HIV1 EFV with reverse transcriptase K103R, V179D, P225H mutant infected in human MT4 cells assessed as protection against virus-induced cytopathogenicity after 4 days by MTT assay; type: functional, organism-based; conditions: Human immunodeficiency virus 1, EFV, MT4, 96 h
[3] = Cytotoxicity against human MT4 cells assessed as reduction of cell viability after 4 days by MTT assay; type: cell-based
Poliovirus 1 = assay: Antiviral activity against Poliovirus Sb-1 infected in african green monkey Vero cells assessed as reduction of virus plaque formation after 3 days; type: functional, cell-based; conditions: Enterovirus C, Sabin, 72 h
[4] = test system: Human immunodeficiency virus 1; assay: Antiviral activity against NNRTI-resistant HIV1 N119 with reverse transcriptase Y181C mutant infected in human MT4 cells assessed as protection against virus-induced cytopathogenicity after 4 days by MTT assay; type: functional, organism-based; conditions: Human immunodeficiency virus 1, N119, MT4, 96 h
[5] = test system: Human immunodeficiency virus 1; assay: Antiviral activity against HIV1 3B infected in human MT4 cells assessed as protection against virus-induced cytopathogenicity after 4 days by MTT assay; type: functional, organism-based; conditions: Human immunodeficiency virus 1, 3B, MT4, 96 h
[6] = test system: Vesicular stomatitis virus; assay: Antiviral activity against Vesicular stomatitis virus assessed as reduction of virus plaque formation by cell based assay; type: functional, organism-based
Yellow fever virus = assay: Antiviral activity against Yellow fever virus infected in BHK-21 cells assessed as protection against virus-induced cytopathogenicity after 2 to 3 days by MTT assay; type: functional, organism-based
Vaccinia virus = assay: Antiviral activity against Vaccinia virus assessed as reduction of virus plaque formation by cell based assay; type: functional, organism-based; conditions: Orthopoxvirus vaccinia
[7] = test system: Bovine viral diarrhea virus 1; assay: Antiviral activity against Bovine viral diarrhea virus infected in MDBK cells assessed as protection against virus-induced cytopathogenicity after 2 to 3 days by MTT assay; type: functional, organism-based; conditions: Bovine viral diarrhea virus isolates and strains
Coxsackievirus B2 = assay: Antiviral activity against Coxsackievirus B2 infected in african green monkey Vero cells assessed as reduction of virus plaque formation after 3 days; type: functional, organism-based; conditions: Enterovirus B, 72 h
[8] = test system: Mammalian orthoreovirus 1; assay: Antiviral activity against Reovirus 1 assessed as protection against virus-induced cytopathogenicity by cell based MTT assay; type: functional, organism-based
[9] = test system: Respiratory syncytial virus; assay: Antiviral activity against Respiratory syncytial virus assessed as reduction of virus plaque formation by cell based assay; type: functional, organism-based; conditions: human respiratory syncytial virus
[10] = test system: Human immunodeficiency virus; assay: Inhibition of HIV reverse transcriptase RNA-dependent polymerase activity after 30 mins by fluorescent microplate assay

| SMILES | EC50 [1] | EC50 [2] | CC50 at 96 h [3] | EC50 (Poliovirus 1) | EC50 [4] | EC50 [5] | EC50 [6] | EC50 (Yellow fever virus) | EC50 (Vaccinia virus) | EC50 [7] | EC50 (Coxsackievirus B2) | EC50 [8] | EC50 [9] | Activity [10] |
| --- | --- | --- | --- | --- | --- | --- | --- | --- | --- | --- | --- | --- | --- | --- |
| O=C1Nc2ccc(Cl)cc2[C@@](C#CC2CC2)(C(F)(F)F)O1 [EFAVIRENZ] | 0.06 µM | 7 µM | 45 µM | – | – | – | – | – | – | – | – | – | – | – |
| c1c2c(cc3[nH]nnc13)NCCC2 | > 100 µM | > 100 µM | > 100 µM | > 100 µM | > 100 µM | > 100 µM | > 100 µM | > 100 µM | > 100 µM | > 100 µM | > 100 µM | > 100 µM | > 100 µM | – |
| c1cnc2cc3[nH]nnc3cc2c1 | > 100 µM | > 100 µM | > 100 µM | > 100 µM | > 100 µM | > 100 µM | > 100 µM | > 100 µM | > 100 µM | > 100 µM | > 100 µM | > 100 µM | > 100 µM | – |
| CCOn1nnc2c1Cc1cccnc1C2 | > 100 µM | > 100 µM | > 100 µM | > 100 µM | > 100 µM | > 100 µM | > 100 µM | > 100 µM | > 100 µM | > 100 µM | > 100 µM | > 100 µM | > 100 µM | – |
| Cc1ccnc2c1NC(=O)c1cccnc1N2C1CC1 [NEVIRAPINE] | > 20 µM | > 20 µM | > 100 µM | – | 7 µM | – | – | – | – | – | – | – | – | – |
| [O-][n+]1n[nH]c2c(Cl)c3ncccc3cc21 | > 100 µM | > 100 µM | > 100 µM | > 100 µM | > 100 µM | > 100 µM | > 100 µM | > 100 µM | > 100 µM | > 100 µM | > 100 µM | > 100 µM | > 100 µM | – |
| [O-][n+]1n[nH]c2c1Cc1cccnc1C2 | 10 µM | 9 µM | > 100 µM | > 100 µM | 4 µM | 12 µM | > 100 µM | > 100 µM | > 100 µM | > 100 µM | > 100 µM | > 100 µM | > 100 µM | Dose-dependent effect |
| c1cnc2c(c1)Cc1nn[nH]c1C2 | > 100 µM | > 100 µM | > 100 µM | > 100 µM | > 100 µM | > 100 µM | > 100 µM | > 100 µM | > 100 µM | > 100 µM | > 100 µM | > 100 µM | > 100 µM | – |
